Measurements from patent publication US11541055B2, “Inhibitors of human immunodeficiency virus replication” (ViiV Healthcare UK (No. 5) LIMITED, priority 2018, dated 2023).
Read-outs that look alike come from different tables or passages of the source.

Experiments:
Format in all cases: cell-based
[1] = test system: recombinant NL4-3 virus (Renilla luciferase) in MT-2 cells; experiment: HIV cell culture assay (antiviral activity, luciferase readout)
How it was run: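 MT-2 cells were infected with recombinant NL4-3 virus carrying Renilla luciferase in place of part of nef. Cells were cultured 4–5 days with serially diluted compound, and luciferase was measured with a live-cell substrate. EC50 was calculated from the median effect equation.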

uninfected MT2 cells = experiment: Compound cytotoxicity, XTT-based colorimetric assay; details: day 4, XTT
How it was run: (§1)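 Run under the antiviral-assay protocol but without virus. Viability was read on day 4 and CC50 values were derived from the readout.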

[2] = as above; details: human; uninfected MT2 cells, day 4, XTT
How it was run: as §1

Row | SMILES | EC50 ([1]; MT-2 cells infected for 4-5 days with recombinant NL4-3 Renilla luciferase virus, luciferase activity, read-out: EC50) [nM] | CC50 (uninfected MT2 cells) [nM] | EC50 ([1]; Renilla, NL43) [nM] | CC50 at 4 days [2] [nM]
1 | CC(C)(C)S(=O)(=O)c1cccc(-c2ccc3c(=O)n(-c4ccc(Cl)c5c(NS(=O)(=O)C6CC6)nn(CC(F)F)c45)c([C@H](Cc4cc(F)cc(F)c4)NC(=O)Cn4nc(C(F)F)c5c4C(F)(F)[C@@H]4C[C@H]54)nc3c2)c1 [Example 146, N-[(1S)-1-{3-[4-chloro-3-cyclopropanesulfonamido-1-(2,2-difluoroethyl)-1H-indazol-7-yl]-7-[3-(2-methylpropane-2-sulfonyl)phenyl]-4-oxo-3,4-dihydroquinazolin-2-yl}-2-(3,5-difluorophenyl)ethyl]-2-[(2S,4R)-9-(difluoromethyl)-5,5-difluoro-7,8-diazatricyclo[4.3.0.0^2,^4]nona-1(6),8-dien-7-yl]acetamide] | 0.39 | > 500 | – | –
2 | COc1ccc(-c2ccc3c(=O)n(-c4ccc(Cl)c5c(NS(=O)(=O)C6CC6)nn(CC(F)F)c45)c([C@H](Cc4cc(F)cc(F)c4)NC(=O)Cn4nc(C(F)F)c5c4C(F)(F)[C@@H]4C[C@H]54)nc3c2)nn1 (atropisomer, axis not shown; (P)) [Example 90, N—((S)-1-((3P)-3-(4-chloro-3-(cyclopropanesulfonamido)-1-(2,2-difluoroethyl)-1H-indazol-7-yl)-7-(6-methoxypyridazin-3-yl)-4-oxo-3,4-dihydroquinazolin-2-yl)-2-(3,5-difluorophenyl)ethyl)-2-((3bS,4aR)-3-(difluoromethyl)-5,5-difluoro-3b,4,4a,5-tetrahydro-1H-cyclopropa[3,4]cyclopenta[1,2-c]pyrazol-1-yl)acetamide] | – | – | 0.085 | > 500
